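How tested: cells in 96-well plates exposed to compound for 48 hours at five concentrations. At the GI50, growth is halved.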 The source made the active and inactive calls. Cut-off read from the data, not from the text of the source: active = GI50 up to about 1.1 µM and inactive = higher.
Experiments:
Test in all cases: NCI tumour cell line growth inhibition, 48 h
[1] = system: UACC-62
[2] = system: NCI-H522
[3] = system: HOP-92
[4] = system: UACC-257
[5] = system: CAKI-1
[6] = system: Malme-3M
[7] = system: ACHN
[8] = system: TK-10
[9] = system: HCT-15
[10] = system: NCI/ADR-RES
[11] = system: NCI-H23
[12] = system: U-251
[13] = system: HCC 2998
[14] = system: NCI-H226
[15] = system: SNB-19
[16] = system: SNB-75
[17] = system: K562
[18] = system: RXF 393
[19] = system: CCRF-CEM
[20] = system: RPMI-8226

Structure (SMILES)	GI50 [1]	GI50 [2]	GI50 [3]	GI50 [4]	GI50 [5]	GI50 [6]	GI50 [7]	GI50 [8]	GI50 [9] [µM]	GI50 [10]	GI50 [11]	GI50 [12]	GI50 [13]	GI50 [14]	GI50 [15]	GI50 [16]	GI50 [17]	GI50 [18]	GI50 [19]	GI50 [20]
O=[As](O)(O)c1ccc2nc3cc([As](=O)(O)O)ccc3nc2c1	> 100 µM (inactive)	> 100 µM (inactive)	> 100 µM (inactive)	> 100 µM (inactive)	> 100 µM (inactive)	> 100 µM (inactive)	> 100 µM (inactive)	> 100 µM (inactive)	> 100	> 100 µM (inactive)	> 100 µM (inactive)	> 100 µM (inactive)	> 100 µM (inactive)	> 100 µM (inactive)	> 100 µM (inactive)	> 100 µM (inactive)	> 100 µM (inactive)	> 100 µM (inactive)	–	–
CCOC(=O)c1cc2cc([N+](=O)[O-])ccc2oc1=O	24.3 µM (inactive)	> 100 µM (inactive)	> 100 µM (inactive)	> 100 µM (inactive)	> 100 µM (inactive)	> 100 µM (inactive)	> 100 µM (inactive)	–	> 100	> 100 µM (inactive)	> 100 µM (inactive)	> 100 µM (inactive)	58.6 µM (inactive)	> 100 µM (inactive)	> 100 µM (inactive)	> 100 µM (inactive)	41.2 µM (inactive)	> 100 µM (inactive)	> 100 µM (inactive)	> 100 µM (inactive)
CCOC1NC(=O)c2ccccc21 (configuration not stated)	> 100 µM (inactive)	> 100 µM (inactive)	> 100 µM (inactive)	> 100 µM (inactive)	–	> 100 µM (inactive)	> 100 µM (inactive)	> 100 µM (inactive)	> 100	> 100 µM (inactive)	> 100 µM (inactive)	> 100 µM (inactive)	> 100 µM (inactive)	> 100 µM (inactive)	> 100 µM (inactive)	> 100 µM (inactive)	> 100 µM (inactive)	> 100 µM (inactive)	> 100 µM (inactive)	> 100 µM (inactive)
CC1=NN(c2ccccc2)C(=O)/C1=C1\SC(c2ccccc2)(c2ccccc2)c2ccccc21	> 100 µM (inactive)	> 100 µM (inactive)	> 100 µM (inactive)	> 100 µM (inactive)	> 100 µM (inactive)	> 100 µM (inactive)	> 100 µM (inactive)	> 100 µM (inactive)	> 100	> 100 µM (inactive)	> 100 µM (inactive)	3.78 µM (inactive)	> 100 µM (inactive)	> 100 µM (inactive)	> 100 µM (inactive)	> 100 µM (inactive)	> 100 µM (inactive)	> 100 µM (inactive)	> 100 µM (inactive)	> 100 µM (inactive)
C=CC[C@@]1(C)CCCCCCCCC[C@@](C)(CC=C)C1=O	27.9 µM (inactive)	35.2 µM (inactive)	46.8 µM (inactive)	25.2 µM (inactive)	35.4 µM (inactive)	25.7 µM (inactive)	34.6 µM (inactive)	99.1 µM (inactive)	29.4	32.7 µM (inactive)	25.5 µM (inactive)	18.9 µM (inactive)	17.4 µM (inactive)	23.8 µM (inactive)	20.5 µM (inactive)	31.5 µM (inactive)	28.7 µM (inactive)	16.9 µM (inactive)	20.2 µM (inactive)	28.3 µM (inactive)
COC(=O)/C=C1/OC(c2ccccc2)=C(C)C1=O	4.12 µM (inactive)	12.6 µM (inactive)	13.2 µM (inactive)	–	4.05 µM (inactive)	13.3 µM (inactive)	13 µM (inactive)	15.7 µM (inactive)	4.79	20.9 µM (inactive)	20.2 µM (inactive)	14.1 µM (inactive)	16.6 µM (inactive)	15.8 µM (inactive)	16.4 µM (inactive)	23.6 µM (inactive)	3.2 µM (inactive)	10.6 µM (inactive)	3.62 µM (inactive)	2.19 µM (inactive)
CCOC(=O)CCC(NC(=O)c1ccc(NCc2ccc3nc(-c4ccccc4)c(Cl)nc3c2)c2ccccc12)C(=O)OCC (configuration not stated)	> 100 µM (inactive)	50.9 µM (inactive)	> 100 µM (inactive)	16.2 µM (inactive)	> 100 µM (inactive)	> 100 µM (inactive)	> 100 µM (inactive)	> 100 µM (inactive)	> 100	> 100 µM (inactive)	58.1 µM (inactive)	> 100 µM (inactive)	> 100 µM (inactive)	> 100 µM (inactive)	> 100 µM (inactive)	> 100 µM (inactive)	6.46 µM (inactive)	> 100 µM (inactive)	–	–
CC(C)(Cc1ccccc1)Cc1cc(O)ccc1O	23.7 µM (inactive)	4.93 µM (inactive)	14.4 µM (inactive)	13.9 µM (inactive)	20.7 µM (inactive)	16.8 µM (inactive)	20.8 µM (inactive)	36.2 µM (inactive)	17.5	16.4 µM (inactive)	14.6 µM (inactive)	15.2 µM (inactive)	20 µM (inactive)	33.8 µM (inactive)	17.7 µM (inactive)	23 µM (inactive)	12.4 µM (inactive)	13.6 µM (inactive)	4.49 µM (inactive)	–
CCCCCC/C=C\CCCCCCCCCC1=C(CN2CCN(C)CC2)C(=O)C=C(OC)C1=O	12.9 µM (inactive)	1.55 µM (inactive)	2.64 µM (inactive)	13.3 µM (inactive)	2.73 µM (inactive)	2.79 µM (inactive)	3.28 µM (inactive)	2.92 µM (inactive)	2.47	3.58 µM (inactive)	4.57 µM (inactive)	–	7.6 µM (inactive)	14.2 µM (inactive)	11.8 µM (inactive)	1.62 µM (inactive)	2.24 µM (inactive)	2.29 µM (inactive)	0.465 µM (active)	2 µM (inactive)
CCN(CC)c1ccc2cc(-c3nc(O)c4ccccc4n3)c(=N)oc2c1	> 100 µM (inactive)	> 100 µM (inactive)	> 100 µM (inactive)	> 100 µM (inactive)	> 100 µM (inactive)	> 100 µM (inactive)	> 100 µM (inactive)	> 100 µM (inactive)	> 100	> 100 µM (inactive)	–	> 100 µM (inactive)	> 100 µM (inactive)	> 100 µM (inactive)	> 100 µM (inactive)	> 100 µM (inactive)	> 100 µM (inactive)	> 100 µM (inactive)	> 100 µM (inactive)	> 100 µM (inactive)
Cn1c2ccccc2n2c(=O)c(-c3ccc(Cl)cc3)nnc12	–	> 100 µM (inactive)	> 100 µM (inactive)	> 100 µM (inactive)	> 100 µM (inactive)	> 100 µM (inactive)	> 100 µM (inactive)	> 100 µM (inactive)	> 100	> 100 µM (inactive)	> 100 µM (inactive)	> 100 µM (inactive)	> 100 µM (inactive)	> 100 µM (inactive)	> 100 µM (inactive)	> 100 µM (inactive)	–	> 100 µM (inactive)	> 100 µM (inactive)	–

Reference: ChEMBL document CHEMBL1201862, “PubChem BioAssay data set” (2004)
